# Measurements published in patent US20240174647A1 (NEURON23, INC., priority 2022, published 2024).
# Molecular target: wt human LRRK2, catalytic site (Homo sapiens (Human), UniProt Q5S007)
# Assay: TR-FRET LanthaScreen Tb Kinase Activity Assay (LRRK2 kinase inhibition)
# Format: biochemical
# Conditions: 2 nM wt human LRRK2, 400 nM fluorescein-ERM (LRRKtide) peptide, 38 μM ATP, 120 minutes at room temperature
# Experimental: The compounds in Table 1 were tested for their inhibitory effect on LRRK2 kinase according to the following procedures.
# The protocol for basic TR-FRET LanthaScreen Tb Kinase Activity Assay inhibitor studies were as follows. LanthaScreen Kinase Activity Assays (ThermoFisher/USA) to evaluate inhibitors were performed by addition of 100 nL of test compound in corresponding DMSO dilutions/5 μL of kinase/fluorescein-ERM(LRRKtide) peptide mixture, 5 μL of ATP into 384 well small volume plates. After incubation for 120 minutes at room temperature, the detection reagents containing Tb-anti-pLRRKtide antibody were added to monitor phosphrylation level of peptide. Then, after 60 min minutes incubation at room temperature plates were read in Envision. Data analysis of emission ratios was according to LanthaScreen Tb Kinase Activity Assay protocol.
# Kinase and assay components were adjusted to final concentrations according to the kit protocol. For LRRK2: 2 nM wt human LRRK2, catalytic site, catalytic site (ThermoFisher/USA), 400 nM peptide, 38 μM ATP in 1× Kinase Buffer A.
# Basic protocol for TR-FRET LanthaScreen Tb Kinase Activity Assay inhibitor studies involved two steps: • Enzymatic step: Addition of 100 nL of test compound in corresponding DMSO dilutions, 5 μL of kinase/substrate mixture, 5 μL of ATP into 384 well small volume plates. Incubation for 120 minutes at room temperature. • Detection step: Addition of 10 μL EDTA & antibody, read plate after 60 minutes. Data analysis of emission ratios according to KinEASE assay protocol.
# Kinase and assay components were adjusted to final concentrations according to the kit protocol.
# In the table below, activity is provided as follows: +++=IC50 less than 50 nM; ++=IC50 between 50 nM and 200 nM; +=IC50>=200 nM
# wt human LRRK2, catalytic site, sequence (Q5S007 1879-2138): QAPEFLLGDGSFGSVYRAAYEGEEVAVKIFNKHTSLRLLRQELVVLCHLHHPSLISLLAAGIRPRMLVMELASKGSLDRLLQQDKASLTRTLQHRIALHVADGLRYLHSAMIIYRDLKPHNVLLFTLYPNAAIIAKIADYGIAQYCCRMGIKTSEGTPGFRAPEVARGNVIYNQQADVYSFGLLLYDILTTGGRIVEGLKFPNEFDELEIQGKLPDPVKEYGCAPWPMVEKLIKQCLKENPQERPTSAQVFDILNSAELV
row,SMILES,IC50 [nM]
1,"CNc1nc(Nc2ccc3c4c2cnn4CCO3)ncc1C(F)(F)F [Example 178, N^4-methyl-N^2-(9-oxa-1,2-diazatricyclo[6.3.1.04,12]dodeca-2,4,6,8(12)-tetraen-5-yl)-5-(trifluoromethyl)pyrimidine-2,4-diamine]",< 50
2,"CCNc1nc(Nc2cccc3c2cnn3CC(F)F)nc2[nH]nc(C)c12 [Example 185, N^6-(1-(2,2-difluoroethyl)-1H-indazol-4-yl)-N^4-ethyl-3-methyl-1H-pyrazolo[3,4-d]pyrimidine-4,6-diamine]",< 50
3,"CNc1nc(Nc2cc(C#N)cc3c2cnn3C)ncc1C(F)(F)F [Example 44, 1-methyl-4-((4-(methylamino)-5-(trifluoromethyl)pyrimidin-2-yl)amino)-1H-indazole-6-carbonitrile]",< 50
4,"CNc1nc(Nc2ccc(/C(C)=C/C(=O)N3CCOCC3)c3c2cnn3C)ncc1C(F)(F)F [Example 59, (E)-3-(1-methyl-4-((4-(methylamino)-5-(trifluoromethyl)pyrimidin-2-yl)amino)-1H-indazol-7-yl)-1-morpholinobut-2-en-1-one]",< 50
5,"CNc1nc(Nc2cc(Cl)cc3c2cnn3CC#N)ncc1C(F)(F)F [Example 92, 2-(6-chloro-4-((4-(methylamino)-5-(trifluoromethyl)pyrimidin-2-yl)amino)-1H-indazol-1-yl)acetonitrile]",< 50
6,"CNc1nc(Nc2cc(F)cc3c2cnn3C)ncc1C(F)(F)F [Example 42, N2-(6-fluoro-1-methyl-1H-indazol-4-yl)-N4-methyl-5-(trifluoromethyl) pyrimidine-2,4-diamine]",< 50
7,"CC(C)Nc1nc(Nc2cccc3c2cnn3CC#N)ncc1C(F)(F)F [Example 110, 2-(4-((4-(isopropylamino)-5-(trifluoromethyl)pyrimidin-2-yl)amino)-1H-indazol-1-yl)acetonitrile]",≥ 200
8,"CNc1nc(Nc2c(C)nn3c(C#N)cccc23)ncc1C(F)(F)F [Example 65, 2-methyl-3-((4-(methylamino)-5-(trifluoromethyl)pyrimidin-2-yl)amino)pyrazolo[1,5-a]pyridine-7-carbonitrile]",≥ 200
9,"CCNc1nc(Nc2cccc3c2cnn3S(C)(=O)=O)ncc1Cl [Example 152, 5-chloro-N4-ethyl-N^2-(1-(methylsulfonyl)-1H-indazol-4-yl)pyrimidine-2,4-diamine]",< 50
10,"N#CCn1ncc2c(Nc3ncc(C(F)(F)F)c(NCC(F)(F)F)n3)cccc21 [Example 106, 2-(4-((4-((2,2,2-trifluoroethyl)amino)-5-(trifluoromethyl)pyrimidin-2-yl)amino)-1-indazol-1-yl)acetonitrile]",< 50
11,"CC(C)(C#N)n1ncc2c(Nc3ncc(C(F)(F)F)c(NC4CC4)n3)ccnc21 [Example 189, 2-(4-((4-(cyclopropylamino)-5-(trifluoromethyl)pyrimidin-2-yl)amino)-1H-pyrazolo[3,4-b]pyridin-yl)-2-methylpropanenitrile]",< 50
12,"CNc1nc(Nc2ccc3cnn(C)c3c2C)ncc1C(F)(F)F [Example 15, N2-(1,7-dimethyl-1H-indazol-6-yl)-N4-methyl-S-(trifluoromethyl)pyrimidine-2,4-diamine]",50 to 200
13,"CCS(=O)(=O)n1ncc2c(Nc3ncc(C(F)(F)F)c(NC4CC4)n3)cccc21 [Example 143, N^4-cyclopropyl-N^2-(1-ethylsulfonylindazol-4-yl)-5-(trifluoromethyl)pyrimidine-2,4-diamine]",< 50
14,"CNc1nc(Nc2cccc3c2cnn3CC(F)F)ncc1C(F)(F)F [Example 94, N2-(1-(2,2-difluoroethyl)-1H-indazol-4-yl)-N4-methyl-5-(trifluoromethyl)pyrimidine-2,4-diamine]",< 50
15,"Cc1n[nH]c2nc(Nc3cccc4c3cnn4CCS(C)(=O)=O)nc(NC3CC3)c12 [Example 182, N^4-cyclopropyl-3-methyl-N^6-[1-(2-methylsulfonylethyl)indazol-4-yl]-1H-pyrazolo[3,4-d]pyrimidine-4,6-diamine]",< 50
16,"CNc1nc(Nc2ccc3cnn(C)c3c2OC)ncc1C(F)(F)F [Example 14, N2-(7-methoxy-1-methyl-1H-indazol-6-yl)-N4-methyl-5-(trifluoromethyl)pyrimidine-2,4-diamine]",50 to 200
17,"CS(=O)(=O)n1ncc2c(Nc3ncc(C(F)(F)F)c(NC4CC4)n3)cccc21 [Example 102, N4-cyclopropyl-N2-(1-(methylsulfonyl)-1H-indazol-4-yl)-5-(trifluoromethyl)pyrimidine-2,4-diamine]",< 50

row,SMILES,IC50 [nM]
1,"CNc1nc(Nc2ccc(C3=CCN(C)CC3)c3c2cnn3CC#N)ncc1C(F)(F)F [Example 87, 2-(7-(1-methyl-1,2,3,6-tetrahydropyridin-4-yl)-4-((4-(methylamino)-5-(trifluoromethyl)pyrimidin-2-yl)amino)-11H-indazol-1-yl)acetonitrile]",< 50
2,"CCOc1nc(Nc2cccc3c2cnn3S(C)(=O)=O)nc2[nH]cc(Cl)c12 [Example 158, 5-chloro-4-ethoxy-N-(1-methylsulfonylindazol-4-yl)-7H-pyrrolo [2,3-d]pyrimidin-2-amine]",< 50
3,"CCNc1nc(Nc2ccc(F)c3c2cnn3CC(C)(C)O)nc2[nH]nc(Cl)c12 [Example 181, 1-(4-((3-chloro-4-(ethylamino)-1H-pyrazolo[3,4-d]pyrimidin-6-yl)amino)-7-fluoro-1H-indazol-1-yl)-2-methylpropan-2-ol]",< 50
4,"FC(F)(F)c1cnc(Nc2cccc3c2cnn3CC2CC2)nc1NC1CC1 [Example 168, N^4-cyclopropyl-N^2-(1-(cyclopropylmethyl)-1H-indazol-4-yl)-5-(trifluoromethyl)pyrimidine-2,4-diamine]",< 50
5,"C[C@]1(n2ncc3c(Nc4ncc(C(F)(F)F)c(NC5CC5)n4)cccc32)CCOC1=O [Example 167, (S)-3-(4-((4-(cyclopropylamino)-5-(trifluoromethyl)pyrimidin-2-yl)amino)-1H-indazol-1-yl)-3-methyldihydrofuran-2(3H)-one]",< 50
6,"CNc1nc(Nc2cccc3c2cnn3CCS(C)(=O)=O)ncc1C(F)(F)F [Example 188, N^4-methyl-N^2-[1-(2-methylsulfonylethyl)indazol-4-yl]-5-(trifluoromethyl) pyrimidine-2,4-diamine]",< 50
7,"CNc1nc(Nc2ccc(/C=C/C(=O)N3CCOCC3)c3[nH]ncc23)ncc1C(F)(F)F [Example 56, (E)-3-(4-((4-(methylamino)-5-(trifluoromethyl)pyrimidin-2-yl)amino)-1H-indazol-7-yl)-1-morpholinoprop-2-en-1-one]",< 50
8,"CNc1nc(Nc2cc(CCC(=O)N3CCOCC3)cc3c2cnn3C)ncc1C(F)(F)F [Example 54, 3-(1-methyl-4-((4-(methylamino)-5-(trifluoromethyl)pyrimidin-2-yl)amino)-1H-indazol-6-yl)-1-morpholinopropan-1-one]",50 to 200
9,"CNc1nc(Nc2ccc(OC)c3nn(C)cc23)ncc1C(F)(F)F [Example 35, N2-(7-methoxy-2-methyl-2H-indazol-4-yl)-N4-methyl-5-(trifluoromethyl) pyrimidine-2,4-diamine]",< 50
10,"CS(=O)(=O)n1ncc2c(Nc3ncc(C(F)(F)F)c(N[C@H]4CCOC4)n3)cccc21 [Example 149, (S)—N^2-(1-(Methylsulfonyl)-1H-indazol-4-yl)-N^4-(tetrahydrofuran-3-yl)-5-(trifluoromethyl)pyrimidine-2,4-diamine]",< 50
11,"FC(F)(F)c1cnc(Nc2cccc3c2cnn3CCN2CCOCC2)nc1NC1CC1 [Example 193, N^4-cyclopropyl-N^2-(1-(2-morpholinoethyl)-1H-indazol-4-yl)-5-(trifluoromethyl)pyrimidine-2,4-diamine]",< 50
12,"CNc1nc(Nc2cc3nn(C)cc3cc2C)ncc1C(F)(F)F [Example 18, N2-(2,5-dimethyl-2H-indazol-6-yl)-N4-methyl-5-(trifluoromethyl)pyrimidine-2,4-diamine]",50 to 200
13,"CS(=O)(=O)CCn1ncc2c(Nc3ncc(C(F)(F)F)c(NCC4CC4)n3)cccc21 [Example 187, N^4-(cyclopropylmethyl)-N^2-(1-(2-(methylsulfonyl)ethyl)-1H-indazol-4-yl)-5-(trifluoromethyl)pyrimidine-2,4-diamine]",< 50
14,"CNc1nc(Nc2cccc3nn(C)cc23)ncc1C(F)(F)F [Example 34, N4-methyl-N2-(2-methyl-2H-indazol-4-yl)-5-(trifluoromethyl)pyrimidine-2,4-diamine]",< 50
15,"CNc1nc(Nc2ncn3ccccc23)ncc1C(F)(F)F [Example 117, N^2-(imidazo[1,5-a]pyridin-1-yl)-N4-methyl-5-(trifluoromethyl)pyrimidine-2,4-diamine]",≥ 200
16,"CNc1nc(Nc2ccc(OC(F)(F)F)c3c2cnn3CC#N)ncc1C(F)(F)F [Example 84, 2-(4-((4-(methylamino)-5-(trifluoromethyl)pyrimidin-2-yl)amino)-7-(trifluoromethoxy)-1H-indazol-1-yl)acetonitrile]",< 50
